# Test results: US20260199213A1, “PEPTIDE HAVING ACTIVITY OF IMPROVING STATE OF SKIN, AND USE THEREOF” (CAREGEN CO., LTD., priority 2022, published 2026)
# What was measured:
# [1] = system: elastin; experiment: Elastin expression by RT-PCR in NIH3T3 cells; type: cell-based
# Description: In this example, the aim was to confirm the effect of the peptide according to an example on improving endogenous skin aging, including improvement of wrinkles and enhancement of elasticity, etc., by evaluating the expression levels of collagen type 1 (Col1a1), fibronectin, elastin, and hyaluronic acid, which are known components of the dermis.
# Specifically, NIH3T3 cells were seeded in a 6-well plate at a density of 3×10^5 cells/well and cultured for 24 hours. Next, the cells were washed once with serum-free DMEM media, and 10 μM, 50 μM or 1000 μM of a peptide consisting of an amino acid sequence of SEQ ID NO: 1 was dispensed into 1 mL of the serum-free media, and cultured in a CO2 incubator at 37° C. for 24 hours. Next, the culture was washed twice with PBS, and RNA was isolated from the culture using easy blue (iNtRON, Cat. No.: 17061, Korea). Next, using an RT kit (Enzynomics, Cat. NO.: RT200, Korea), the isolated RNA was reverse transcribed to synthesize the respective cDNA. Next, using the synthesized 1 ug cDNA, primers for Colla1, fibronectin, or elastin, and a PCR kit (Enzynomics, Cat. No.: P581T, Korea), polymerase chain reaction (PCR) was performed. Meanwhile, in this example, an untreated group was used as a control group, and a group to which […] was added was used as a positive control group, the nucleotide sequences of the primers used in this example are shown in Table 2 below.
# In this example, the aim was to more specifically compare the effects of peptides according to an embodiment on improving intrinsic skin aging. To this end, a peptide consisting of an amino acid sequence of SEQ ID NO: 2, 3, or 4 having a sequence similar to a peptide according to an embodiment was set as a comparison group, and the expression levels of fibronectin and elastin were evaluated and compared in the same manner as in Example 2-1. […]
# [2] = system: procollagen I alpha; experiment: Procollagen I alpha protein level by Collagen ELISA in NIH3T3 cells; type: cell-based; conditions: 10 μM, 50 μM or 1000 μM peptide, 72 hours
# Description: (§1) Additionally, to evaluate the expression levels of procollagen I alpha and hyaluronic acid at the protein level, NIH3T3 cells or HaCaT cells were seeded at a density of 1×10^4 cells/well in 24-well plates and then cultured for 24 hours. Next, the cells were washed once with serum-free DMEM media, and 10 μM, 50 μM or 1000 μM of the peptide consisting of the amino acid sequence of SEQ ID NO: 1 was dispensed into 2 mL of the serum-free media, and cultured in a CO2 incubator at 37° C. for 72 hours. Next, the culture was centrifuged to settle the suspended matter, and the supernatant was transferred to an e-tube. Next, Collagen ELISA (abcam, Cat No.: ab210579, UK) and HA ELISA (ECHELON biosciences, Cat No.: K-1200, USA) were performed on the centrifuged culture. Meanwhile, in this example, an untreated group was used as the control group, and a group to which TGF-β1 or EGF was added was used as the positive control group.
# [3] = system: hyaluronic acid; experiment: Hyaluronic acid level by HA ELISA in HaCaT cells; type: cell-based; conditions: 10 μM, 50 μM or 1000 μM peptide, 72 hours
# Description: as §1
# [4] = system: B16F10 cells; experiment: Melanin production in α-MSH-stimulated B16F10 cells; type: cell-based, mouse; conditions: 200 ng/ml α-MSH, 50 μM or 100 μM peptide, 72 hours, absorbance at 450 nm
# Description: B16F10 cells, a mouse melanoma cell line, were seeded at a density of 5×10^4 cells/well in a 6-well plate and cultured for 16 hours. Next, the culture medium was replaced with a medium including a 2% serum, and 200 ng/ml of α-MSH (α-melanocyte-stimulating hormones) was added to promote melanin production, in addition, 50 μM or 100 μM of each peptide consisting of the amino acid sequence of SEQ ID NO: 1 was added, and then cultured for 72 hours. Next, the cultured cells were dissolved with 1N NaOH and the absorbance at 450 nm was measured. Meanwhile, an untreated group (Con) was used as the control group, a group to which only α-MSH was added was used as the negative control group, a group to which the peptide consisting of the amino acid sequence of SEQ ID NO: 2 or 3 and α-MSH were added (50 μM, 100 μM) as the comparison group, and a group to which Arbutin (200 μM, 500 μM), known as a skin whitening agent, and α-MSH were added was used as the positive control group.
substance,measurement,setting,value
GPRGDP [SEQ ID NO: 1],expression of elastin,"[1]; 10 μM, 50 μM or 1000 μM peptide, 24 hours, PCR, vs untreated group",increased
same,expression of elastin (Example 2-2),"[1]; comparison experiment, FIG. 5 and FIG. 6",increased
same,elastin expression effect compared to the comparison group,"[1]; vs peptides of SEQ ID NO: 2, 3, or 4 (50 μM, 100 μM)",superior
same,expression of procollagen I alpha at the protein level,[2],increased
same,expression of hyaluronic acid at the protein level,[3],increased
same,melanin production,[4],decreased
